Data published in US20230074545A1, “TREATMENT OF CANCER WITH CDK12/13 INHIBITORS” (Kinnate Biopharma Inc., priority 2019, published 2023).

Tests used:
Assay in all cases: Radiometric kinase panel
Assay type in all cases: biochemical
ACVR1B = biological target: T1, ACVR1B (Homo sapiens, UniProt P36896)
T1 construct: purchased ProQinase GmbH (Reaction Biology); host or cells: Sf9 insect cells or E. coli (not specified per kinase)
In short: (§1)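 Activity was measured radiometrically from [gamma-33P]-ATP incorporation into substrate. The kinases were recombinant human GST- or His-tagged proteins, full-length or active fragments, expressed in Sf9 or E. coli. Compound in 10% DMSO was added before the enzyme/substrate mix, which started the reaction.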

ACVR2A = biological target: T2, ACVR2A (Homo sapiens, UniProt P27037)
T2 construct: either as full-length or enzymatically active fragments; purchased ProQinase GmbH (Reaction Biology)
In short: as §1

BTK = biological target: T3, BTK (Homo sapiens, UniProt Q06187)
T3 construct: purchased ProQinase GmbH (Reaction Biology); host or cells: Sf9 insect cells or E. coli (not specified per kinase)
T3 sequence (Q06187 whole entry): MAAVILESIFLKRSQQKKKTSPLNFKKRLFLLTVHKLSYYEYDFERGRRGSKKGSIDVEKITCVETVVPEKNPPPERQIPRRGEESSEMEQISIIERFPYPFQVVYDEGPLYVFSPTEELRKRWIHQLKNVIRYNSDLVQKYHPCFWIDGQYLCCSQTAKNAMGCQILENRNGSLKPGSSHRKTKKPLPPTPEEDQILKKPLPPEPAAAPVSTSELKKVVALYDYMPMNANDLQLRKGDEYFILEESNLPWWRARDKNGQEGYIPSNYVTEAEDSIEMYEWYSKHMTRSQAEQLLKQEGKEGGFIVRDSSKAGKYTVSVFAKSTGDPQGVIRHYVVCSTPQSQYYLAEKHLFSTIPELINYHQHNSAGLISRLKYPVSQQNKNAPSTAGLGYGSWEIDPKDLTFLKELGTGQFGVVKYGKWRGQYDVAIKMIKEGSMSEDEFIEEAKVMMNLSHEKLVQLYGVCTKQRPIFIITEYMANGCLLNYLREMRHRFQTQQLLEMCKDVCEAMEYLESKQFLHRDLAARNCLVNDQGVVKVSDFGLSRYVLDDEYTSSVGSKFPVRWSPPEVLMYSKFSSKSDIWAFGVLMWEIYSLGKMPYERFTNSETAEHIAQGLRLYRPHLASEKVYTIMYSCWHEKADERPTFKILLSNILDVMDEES
In short: as §1

CAMK2D = biological target: T4, CAMK2D (Homo sapiens, UniProt Q13557)
T4 construct: purchased ProQinase GmbH (Reaction Biology)
In short: as §1

CAMKK1 = biological target: T5, CAMKK1 (Homo sapiens, UniProt Q8N5S9)
T5 construct: either as full-length or enzymatically active fragments; purchased ProQinase GmbH (Reaction Biology)
In short: as §1

CDK17/p35NCK = biological target: T6, CDK17/p35NCK (Homo sapiens, UniProt Q00537)
T6 construct: either as full-length or enzymatically active fragments; purchased ProQinase GmbH (Reaction Biology); host or cells: Sf9 insect cells or E. coli
In short: as §1

CDK8/CycC = biological target: T7, CDK8/CycC (Homo sapiens, UniProt P49336)
T7 construct: either as full-length or enzymatically active fragments; purchased ProQinase GmbH (Reaction Biology)
In short: as §1

CK1delta = biological target: T8, CK1delta (Homo sapiens, UniProt P48730)
T8 construct: either as full-length or enzymatically active fragments; purchased ProQinase GmbH (Reaction Biology)
In short: as §1

DCAMKL2 = biological target: T9, DCAMKL2 (Homo sapiens, UniProt Q8N568)
T9 construct: purchased ProQinase GmbH (Reaction Biology); host or cells: Sf9 insect cells or E. coli (not specified per kinase)
T9 sequence (Q8N568 whole entry): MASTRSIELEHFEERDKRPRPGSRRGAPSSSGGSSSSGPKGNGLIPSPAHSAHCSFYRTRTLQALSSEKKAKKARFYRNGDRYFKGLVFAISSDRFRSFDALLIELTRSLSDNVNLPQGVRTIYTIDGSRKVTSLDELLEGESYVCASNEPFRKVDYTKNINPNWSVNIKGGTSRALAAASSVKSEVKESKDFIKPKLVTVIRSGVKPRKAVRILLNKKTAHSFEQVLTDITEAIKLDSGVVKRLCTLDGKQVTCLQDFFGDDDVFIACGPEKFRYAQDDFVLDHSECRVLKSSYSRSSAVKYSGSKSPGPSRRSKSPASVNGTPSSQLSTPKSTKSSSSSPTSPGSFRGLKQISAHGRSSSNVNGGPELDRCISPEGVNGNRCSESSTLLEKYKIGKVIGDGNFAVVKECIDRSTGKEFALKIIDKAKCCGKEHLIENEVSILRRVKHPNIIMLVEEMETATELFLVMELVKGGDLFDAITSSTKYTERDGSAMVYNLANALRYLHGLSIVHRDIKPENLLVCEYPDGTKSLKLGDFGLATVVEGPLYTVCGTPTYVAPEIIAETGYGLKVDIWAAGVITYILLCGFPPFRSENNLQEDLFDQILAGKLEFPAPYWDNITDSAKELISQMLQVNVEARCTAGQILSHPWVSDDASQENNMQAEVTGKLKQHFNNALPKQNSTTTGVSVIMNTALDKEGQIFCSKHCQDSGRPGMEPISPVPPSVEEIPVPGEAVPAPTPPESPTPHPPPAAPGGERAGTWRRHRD
In short: as §1

DYRK3 = biological target: T10, DYRK3 (Homo sapiens, UniProt O43781)
T10 construct: either as full-length or enzymatically active fragments; purchased ProQinase GmbH (Reaction Biology)
T10 sequence (O43781 whole entry, the tested form may be a part): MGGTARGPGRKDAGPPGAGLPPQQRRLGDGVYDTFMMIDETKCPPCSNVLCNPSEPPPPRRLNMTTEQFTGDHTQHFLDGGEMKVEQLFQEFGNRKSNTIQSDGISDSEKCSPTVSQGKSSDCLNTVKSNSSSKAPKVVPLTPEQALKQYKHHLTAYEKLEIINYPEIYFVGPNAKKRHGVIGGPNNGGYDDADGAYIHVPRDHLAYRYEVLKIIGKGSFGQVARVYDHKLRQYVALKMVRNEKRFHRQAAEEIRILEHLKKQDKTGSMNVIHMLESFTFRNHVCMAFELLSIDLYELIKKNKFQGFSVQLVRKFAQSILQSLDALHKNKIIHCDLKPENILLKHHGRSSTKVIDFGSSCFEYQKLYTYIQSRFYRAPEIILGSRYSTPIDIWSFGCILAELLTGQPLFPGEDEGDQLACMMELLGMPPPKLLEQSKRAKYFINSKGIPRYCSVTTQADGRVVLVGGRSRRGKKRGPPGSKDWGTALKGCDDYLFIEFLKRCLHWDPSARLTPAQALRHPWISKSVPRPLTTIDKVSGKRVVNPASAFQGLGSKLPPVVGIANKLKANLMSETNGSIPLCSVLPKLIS
In short: as §1

EPHA3 = biological target: T11, EPHA3 (Homo sapiens, UniProt P29320)
T11 construct: either as full-length or enzymatically active fragments; purchased ProQinase GmbH (Reaction Biology)
In short: as §1

EPHB2 = biological target: T12, EPHB2 (Homo sapiens, UniProt P29323)
T12 construct: purchased ProQinase GmbH (Reaction Biology); host or cells: Sf9 insect cells or E. coli (not specified per kinase)
In short: as §1

IGF1R = biological target: T13, IGF1R (Homo sapiens, UniProt P08069)
T13 construct: either as full-length or enzymatically active fragments; purchased ProQinase GmbH (Reaction Biology); host or cells: Sf9 insect cells or E. coli
T13 sequence (P08069 31-1367): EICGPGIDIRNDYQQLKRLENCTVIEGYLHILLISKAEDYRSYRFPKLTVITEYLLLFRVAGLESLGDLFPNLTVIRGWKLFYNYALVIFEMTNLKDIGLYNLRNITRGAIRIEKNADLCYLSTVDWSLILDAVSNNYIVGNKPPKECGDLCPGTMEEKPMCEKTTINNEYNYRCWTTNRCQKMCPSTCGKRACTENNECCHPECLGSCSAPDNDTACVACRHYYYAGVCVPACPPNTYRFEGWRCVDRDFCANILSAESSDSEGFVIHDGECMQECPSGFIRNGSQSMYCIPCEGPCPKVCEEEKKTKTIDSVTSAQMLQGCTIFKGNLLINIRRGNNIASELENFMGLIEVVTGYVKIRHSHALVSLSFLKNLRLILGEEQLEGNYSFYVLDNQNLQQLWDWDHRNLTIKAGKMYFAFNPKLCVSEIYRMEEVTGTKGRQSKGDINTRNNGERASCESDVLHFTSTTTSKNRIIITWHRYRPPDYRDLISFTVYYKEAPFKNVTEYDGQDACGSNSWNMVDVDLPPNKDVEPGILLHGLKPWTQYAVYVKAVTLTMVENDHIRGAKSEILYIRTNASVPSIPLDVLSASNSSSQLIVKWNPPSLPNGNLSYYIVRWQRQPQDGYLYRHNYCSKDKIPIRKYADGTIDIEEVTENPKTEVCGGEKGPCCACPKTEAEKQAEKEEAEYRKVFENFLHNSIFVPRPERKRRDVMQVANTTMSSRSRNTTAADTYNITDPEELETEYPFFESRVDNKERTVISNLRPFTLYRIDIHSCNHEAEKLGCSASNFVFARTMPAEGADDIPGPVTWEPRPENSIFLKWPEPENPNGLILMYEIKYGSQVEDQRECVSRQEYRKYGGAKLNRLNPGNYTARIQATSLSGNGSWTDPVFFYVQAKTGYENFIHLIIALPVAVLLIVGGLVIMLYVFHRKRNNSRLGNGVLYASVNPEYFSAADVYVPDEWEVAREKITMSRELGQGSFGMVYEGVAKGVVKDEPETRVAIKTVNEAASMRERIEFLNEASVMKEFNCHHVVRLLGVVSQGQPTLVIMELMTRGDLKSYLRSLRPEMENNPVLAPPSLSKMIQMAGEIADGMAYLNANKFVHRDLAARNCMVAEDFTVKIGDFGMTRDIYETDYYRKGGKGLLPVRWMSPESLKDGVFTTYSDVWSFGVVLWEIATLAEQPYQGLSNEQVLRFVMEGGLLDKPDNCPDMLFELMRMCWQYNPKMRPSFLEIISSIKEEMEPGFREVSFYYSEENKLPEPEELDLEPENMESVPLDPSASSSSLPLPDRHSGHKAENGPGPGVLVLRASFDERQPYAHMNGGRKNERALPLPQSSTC
In short: as §1

MAP3K7/MAP3K7IP1 = biological target: T14, MAP3K7/MAP3K7IP1 (Homo sapiens, UniProt O43318)
T14 construct: either as full-length or enzymatically active fragments; purchased ProQinase GmbH (Reaction Biology)
In short: as §1

MAP4K5 = biological target: T15, MAP4K5 (Homo sapiens, UniProt Q9Y4K4)
T15 construct: purchased ProQinase GmbH (Reaction Biology)
In short: as §1

MAPKAPK2 = biological target: T16, MAPKAPK2 (Homo sapiens, UniProt P49137)
T16 construct: either as full-length or enzymatically active fragments; purchased ProQinase GmbH (Reaction Biology); host or cells: Sf9 insect cells or E. coli
In short: as §1

MST1 = biological target: T17, MST1 (Homo sapiens, UniProt Q13043)
T17 construct: purchased ProQinase GmbH (Reaction Biology); host or cells: Sf9 insect cells or E. coli (not specified per kinase)
T17 sequence (Q13043 whole entry): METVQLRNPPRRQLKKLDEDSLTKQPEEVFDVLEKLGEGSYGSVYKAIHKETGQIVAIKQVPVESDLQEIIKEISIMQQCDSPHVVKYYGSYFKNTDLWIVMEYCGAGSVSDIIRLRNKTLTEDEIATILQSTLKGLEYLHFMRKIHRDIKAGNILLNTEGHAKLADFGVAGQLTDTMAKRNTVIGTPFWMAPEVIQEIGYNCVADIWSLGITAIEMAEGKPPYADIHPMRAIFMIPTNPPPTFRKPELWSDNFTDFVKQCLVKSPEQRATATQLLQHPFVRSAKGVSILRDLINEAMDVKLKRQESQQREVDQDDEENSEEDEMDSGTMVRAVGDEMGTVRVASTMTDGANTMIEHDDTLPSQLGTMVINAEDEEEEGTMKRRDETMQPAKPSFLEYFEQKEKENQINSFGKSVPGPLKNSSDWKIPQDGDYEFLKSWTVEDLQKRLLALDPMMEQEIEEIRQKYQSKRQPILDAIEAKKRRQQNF
In short: as §1

MST4 = biological target: T18, MST4 (Homo sapiens, UniProt Q9P289)
T18 construct: either as full-length or enzymatically active fragments; purchased ProQinase GmbH (Reaction Biology)
T18 sequence (Q9P289 whole entry, the tested form may be a part): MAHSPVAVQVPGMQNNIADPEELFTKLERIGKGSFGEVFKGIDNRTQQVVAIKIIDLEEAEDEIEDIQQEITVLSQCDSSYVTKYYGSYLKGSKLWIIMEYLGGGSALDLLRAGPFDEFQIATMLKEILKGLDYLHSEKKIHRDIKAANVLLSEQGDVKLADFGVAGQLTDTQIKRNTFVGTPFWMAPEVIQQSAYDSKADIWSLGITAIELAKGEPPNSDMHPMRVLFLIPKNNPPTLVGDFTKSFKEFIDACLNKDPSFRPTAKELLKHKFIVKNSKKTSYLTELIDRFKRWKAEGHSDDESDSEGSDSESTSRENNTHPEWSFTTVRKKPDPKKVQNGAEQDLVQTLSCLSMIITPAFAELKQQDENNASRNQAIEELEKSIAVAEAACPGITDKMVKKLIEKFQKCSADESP
In short: as §1

NEK3 = biological target: T19, NEK3 (Homo sapiens, UniProt P51956)
T19 construct: either as full-length or enzymatically active fragments; purchased ProQinase GmbH (Reaction Biology)
In short: as §1

NEK4 = biological target: T20, NEK4 (Homo sapiens, UniProt P51957)
T20 construct: purchased ProQinase GmbH (Reaction Biology)
In short: as §1

NIK = biological target: T21, NIK (Homo sapiens, UniProt Q99558)
T21 construct: purchased ProQinase GmbH (Reaction Biology)
In short: as §1

PDK1 = biological target: T22, PDK1 (Homo sapiens, UniProt O15530)
T22 construct: either as full-length or enzymatically active fragments; purchased ProQinase GmbH (Reaction Biology)
T22 sequence (O15530 whole entry, the tested form may be a part): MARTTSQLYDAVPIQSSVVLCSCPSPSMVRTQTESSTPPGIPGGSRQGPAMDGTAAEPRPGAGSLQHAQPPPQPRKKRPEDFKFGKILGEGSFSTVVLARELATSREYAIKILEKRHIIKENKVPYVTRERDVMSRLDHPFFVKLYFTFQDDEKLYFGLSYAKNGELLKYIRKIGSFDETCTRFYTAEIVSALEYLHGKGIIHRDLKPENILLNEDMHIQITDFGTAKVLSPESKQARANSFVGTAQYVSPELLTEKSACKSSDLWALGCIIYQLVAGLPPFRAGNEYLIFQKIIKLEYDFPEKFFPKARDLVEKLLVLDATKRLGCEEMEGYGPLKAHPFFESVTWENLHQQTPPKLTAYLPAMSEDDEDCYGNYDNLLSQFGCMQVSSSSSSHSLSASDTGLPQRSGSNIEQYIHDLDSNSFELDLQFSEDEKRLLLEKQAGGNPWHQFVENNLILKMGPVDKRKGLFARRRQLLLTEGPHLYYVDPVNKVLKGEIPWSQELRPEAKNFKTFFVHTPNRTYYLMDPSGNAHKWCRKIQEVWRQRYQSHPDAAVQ
In short: as §1

PKCalpha = biological target: T23, PKCalpha (Homo sapiens, UniProt P17252)
T23 construct: either as full-length or enzymatically active fragments; purchased ProQinase GmbH (Reaction Biology)
In short: as §1

RAF1 YDYD = biological target: T24, RAF1 YDYD (Homo sapiens, UniProt P04049, Y340D/Y341D)
T24 construct: either as full-length or enzymatically active fragments; purchased ProQinase GmbH (Reaction Biology); host or cells: Sf9 insect cells or E. coli (not specified per kinase)
In short: as §1

ROCK2 = biological target: T25, ROCK2 (Homo sapiens, UniProt O75116)
T25 construct: either as full-length or enzymatically active fragments; purchased ProQinase GmbH (Reaction Biology)
In short: as §1

TAOK2 = biological target: T26, TAOK2 (Homo sapiens, UniProt Q9UL54)
T26 construct: either as full-length or enzymatically active fragments; purchased ProQinase GmbH (Reaction Biology)
In short: as §1

TGFBR1 = biological target: T27, TGFBR1 (Homo sapiens, UniProt P36897)
T27 construct: either as full-length or enzymatically active fragments; purchased ProQinase GmbH (Reaction Biology)
In short: as §1

VEGFR2 = biological target: T28, VEGFR2 (Homo sapiens, UniProt P35968)
T28 construct: either as full-length or enzymatically active fragments; purchased ProQinase GmbH (Reaction Biology); host or cells: Sf9 insect cells or E. coli
In short: as §1

WNK3 = biological target: T29, WNK3 (Homo sapiens, UniProt Q9BYP7)
T29 construct: either as full-length or enzymatically active fragments; purchased ProQinase GmbH (Reaction Biology)
In short: as §1

p38beta = biological target: T30, p38beta (Homo sapiens, UniProt Q15759)
T30 construct: either as full-length or enzymatically active fragments; purchased ProQinase GmbH (Reaction Biology); host or cells: Sf9 insect cells or E. coli (not specified per kinase)
In short: as §1

C=CC(=O)Nc1ccc(C(=O)N2CC[C@@H](Nc3ncc(C#N)cn3)C2)cc1 [Compound 4, (R)-N-(4-(3-((5-cyanopyrimidin-2-yl)amino)pyrrolidine-1-carbonyl)phenyl)acrylamide]
inhibition at 1 µM (ACVR1B): 1%
inhibition at 1 µM (ACVR2A): 7%
inhibition at 1 µM (BTK): 1%
inhibition at 1 µM (CAMK2D): 0%
inhibition at 1 µM (CAMKK1): 3%
inhibition at 1 µM (CDK17/p35NCK): 12%
inhibition at 1 µM (CDK8/CycC): 3%
inhibition at 1 µM (CK1delta): -7%
inhibition at 1 µM (DCAMKL2): 0%
inhibition at 1 µM (DYRK3): -3%
inhibition at 1 µM (EPHA3): 6%
inhibition at 1 µM (EPHB2): 1%
inhibition at 1 µM (IGF1R): -23%
inhibition at 1 µM (MAP3K7/MAP3K7IP1): 2%
inhibition at 1 µM (MAP4K5): 0%
inhibition at 1 µM (MAPKAPK2): -24%
inhibition at 1 µM (MST1): 1%
inhibition at 1 µM (MST4): 6%
inhibition at 1 µM (NEK3): 6%
inhibition at 1 µM (NEK4): -1%
inhibition at 1 µM (NIK): -2%
inhibition at 1 µM (PDK1): -7%
inhibition at 1 µM (PKCalpha): -5%
inhibition at 1 µM (RAF1 YDYD): 9%
inhibition at 1 µM (ROCK2): 19%
inhibition at 1 µM (TAOK2): 5%
inhibition at 1 µM (TGFBR1): 7%
inhibition at 1 µM (VEGFR2): 12%
inhibition at 1 µM (WNK3): -6%
inhibition at 1 µM (p38beta): 8%
